Experimental data reported in US20240173403A1, “Combination of AXL Antibodies and ACE Inhibitors in the Treatment of Fibrosis” (BERGENBIO ASA, priority 2021, published 2024).
Entries after “also recorded” stand apart in the source; their conditions may differ. Read-outs that look alike come from different tables or passages of the source.

Legend:
Collagen 1a1 = Collagen 1a1 levels in human PCKS culture supernatants (ELISA); format: cell-based
Protocol: (§1) PCKS were prepared from explanted kidney tissue and rested for 24 hours to allow the post-slicing stress period to elapse before experiments began. All PCKS were harvested at 96 hrs.
(§2) PCKS were incubated for a 24 hr rest period. Post-rest, PCKS were incubated for a further 72 hrs in the presence or absence of inhibitors. PCKS culture media, including all compounds, was refreshed and harvested at 24 hrs intervals. All PCKS were harvested at 96 hrs.
(§3) Tissue culture supernatant (n=3 paired wells) were collected every 24 hrs and snap frozen for quantification of soluble outputs. At 96 hrs n=4 PCKS were snap frozen for RNA extraction and n=2 PCKS were formalin fixed paraffin embedded (FFPE) for IHC.
(§4) Levels of collagen 1a1, IL-6, Hyaluronic Acid and TIMP-1 in the tissue culture supernatants (n=165 samples per donor) were quantified using R&D Duoset ELISA kits.
Levels of collagen 1a1 in the tissue culture supernatants were quantified using R&D Duoset ELISA kits.

[1] = test system: αSMA (activated myofibroblasts); test: α-SMA staining of PCKS sections, % area positive; format: cell-based, human; settings: 96 hrs harvest
Protocol: as §1, §3
FFPE tissue was cut into 5 μm sections and stained for Picrosirius Red and α-Smooth Muscle Actin (αSMA) (n=19 samples per donor). Analysis was performed by a pathology trained technical staff member without knowledge of the sample ID. High magnification images were taken of each slide and analysed for the surface area covered by the stain (e.g. percentage area positive for Oil Red O, Picrosirius or αSMA).
α-SMA stained PCKS sections were prepared. Up to 25 high magnification images (×20) from each PCKS were quantified for the percentage area of tissue positive for stain and averaged to give a mean tissue area positive for α-SMA.
Histological effects of treatments were assessed on the basis of changes in percentage positive area stained for αSMA (activated myofibroblasts) and Picrosirius Red (collagen deposition).

liver fibrosis = settings: mice; Barcena et al. 2015; cited from earlier work
kidney fibrosis = settings: UUO mice, bemcentinib monotherapy, Landolt et al. 2019, cited from earlier work
TIMP-1 = TIMP-1 levels in human PCKS culture supernatants (ELISA); format: cell-based
Protocol: as §1, §2, §3, §4

lung fibrosis = settings: two mouse lung fibrosis models; Espindola et al. 2018; cited from earlier work
IL-6 = IL-6 levels in human PCKS culture supernatants (ELISA); format: cell-based; settings: two of the high doses of Bemcentinib; early time point (48 hrs)
Protocol: as §1, §2, §3, §4

Hyaluronic Acid = Hyaluronic Acid levels in human PCKS culture supernatants (ELISA); format: cell-based; settings: Nintedanib 4 μM
Protocol: as §1, §2, §3, §4

[2] = Enalapril alone (0.75, 0.15 μM)
[3] = 4 μM, 72 hrs and 96 hrs of treatment, positive control
[4] = Tilvestamab monotherapy (1 to 125 μg/mL)

Nc1nc(Nc2ccc3c(c2)CC[C@@H](N2CCCC2)CC3)nn1-c1cc2c(nn1)-c1ccccc1CCC2 [Bemcentinib, 1-(6,7-dihydro-5H-benzo[6,7]cyclohepta[1,2-c]pyridazin-3-yl)-N^3-((7-(S)-pyrrolidin-1-yl)-6,7,8,9-tetrahydro-5H-benzo[7]annulene-2-yl)-1H-1,2,4-triazole-3,5-diamine]
Collagen 1a1 production (Collagen 1a1; Bemcentinib monotherapy, all doses (0.11, 0.33, 1, 3 μM), not dose dependent): able to reduce production of the fibrotic markers Collagen 1a1 and TIMP-1 at all doses | αSMA, percentage positive area ([1]; Bemcentinib singly, 3 μM): reduce expression of the fibrotic marker αSMA; also recorded: reduced | liver fibrosis (liver fibrosis): reduced liver fibrosis | fibrosis development in kidney (kidney fibrosis): attenuate fibrosis and reduce inflammation | fibrosis development in kidney (kidney fibrosis; listed as bemcentinib): less fibrosis development | TIMP-1 production (TIMP-1; Bemcentinib monotherapy, all doses (0.11, 0.33, 1, 3 μM)): able to reduce production of the fibrotic markers Collagen 1a1 and TIMP-1 at all doses | fibrosis development in lung (lung fibrosis): reduction in fibrosis development | IL-6 secretion (IL-6): spike in IL-6 secretion

CCOC(=O)[C@H](CCc1ccccc1)N[C@@H](C)C(=O)N1CCC[C@H]1C(=O)O [Enalapril]
Collagen 1a1 secretion (Collagen 1a1; [2]): did not show any efficacy towards reducing Collagen 1a1 secretion | αSMA, percentage positive area ([1]; Enalapril singly, 0.15 μM): reduced | αSMA, percentage positive area ([1]; Enalapril singly, 0.15 μM, listed as Enalaril): reduce expression of the fibrotic marker αSMA | TIMP-1 secretion (TIMP-1; [2]): did not show any efficacy towards reducing TIMP-1 secretion

COC(=O)c1ccc2c(c1)NC(=O)/C2=C(\Nc1ccc(N(C)C(=O)CN2CCN(C)CC2)cc1)c1ccccc1 [Nintedanib]
Collagen 1a1 production (Collagen 1a1; [3]): inhibited Collagen 1a1 production | TIMP-1 production (TIMP-1; [3]): significantly inhibit TIMP-1 production | Hyaluronic acid (Hyaluronic Acid): readily reduced

B1: Tilvestamab: novel humanized anti-AXL antibody that blocks GAS6-mediated AXL receptor activation; VH SEQ ID No.1, VL SEQ ID No.2 (antibody, V domains shown)
VH: EVQLVESGGGLVQPGGSLRLSCAASGYSFTDFYINWVRQAPGKGLEWVARIFPGGDNTYYNEKFKGRFTLSADTSKSTAYLQMNSLRAEDTAVYYCARRGLYYAMDYWGQGTLVTVSS
VL: DIQMTQSPSSLSASVGDRVTITCRSSQSLVHSNGIPYLHWYQQKPGKAPKLLIYRVSNRFSGVPSRFSGSGSGTDFTLTISSLQPEDFATYYCSQGTHVPPTFGQGTKVEIK
modifications: BGB149 VH; BGB149 VL
Collagen 1a1 secretion (Collagen 1a1; [4]): no effect on reducing Collagen 1a1 or TIMP-1 secretion; also recorded: no effect on reducing Collagen 1a1 secretion | αSMA, percentage positive area ([1]; Tilvestamab singly, three of the highest doses): did reduce αSMA; also recorded: reduced | TIMP-1 secretion (TIMP-1; [4]): no effect on reducing Collagen 1a1 or TIMP-1 secretion; also recorded: no effect on reducing TIMP-1 secretion
